Laboratory results published in publication PMC4975872 (Journal of biomolecular screening, 2014).
pEC50: −log10 of the molar value. Read-outs that look alike come from different tables or passages of the source. Blank lines part the entries; values can stand above or below the molecule they belong to.

Columns and labels:
[1] = tested on: ERK/β-arrestin interaction; format: cell-based, human; details: antagonist 15 min, then 1 μM adrenaline for 90 min
[2] = tested on: ERK/β-arrestin interaction; format: cell-based, human; details: inhibitor 15 min in serum-free DMEM, then 5% FBS for 90 min
S1P (endogenous GPCR) = format: cell-based, U2OS; details: read-out: EC50 values; n = 3
[3] = tested on: ERK/β-arrestin interaction; details: 10 μM agonist, Fig. S5
[4] = tested on: ERK/β-arrestin interaction; experiment: ERK/β-arrestin interaction LinkLight assay, RTK ligand responses; format: cell-based, human; details: endogenous RTKs in U2OS cells, serum-free DMEM, 90 min, 37°C
[5] = tested on: ERK/β-arrestin interaction; experiment: ERK/β-arrestin interaction LinkLight assay, cytokine receptor response; format: cell-based, human; details: for S/B ratio: 0.1 μg/ml cytokine, Fig. S5; for EC50, stimulation of ERK/β-arrestin interaction signals by cytokines: endogenous cytokine receptors in U2OS cells, serum-free DMEM, 90 min, 37°C

Molecule: CN(C)CCN(C)CCc1ccc(Cl)c(Cl)c1 [BD-1047]
inhibition of GPCR agonist-induced ERK/β-arrestin interaction signals [1]: inhibit

inhibition of FBS-induced ERK/β-arrestin interaction signals [2]: did not block
Molecule: O=C(NOCC1CC1)c1ccc(F)c(F)c1Nc1ccc(I)cc1Cl [CI-1040]

inhibition of FBS-induced ERK/β-arrestin interaction signals [2]: did not block
Molecule: O=C1Nc2ccc(I)cc2/C1=C/c1cc(Br)c(O)c(Br)c1 [GW5074]

pEC50 (S1P (endogenous GPCR)): 6.47
Molecule: CCCCCCCCCCCCC/C=C/[C@@H](O)[C@@H](N)COP(=O)(O)O [S1P, sphingosine 1-phosphate]

Molecule: CNC[C@H](O)c1ccc(O)c(O)c1 [adrenaline]
S/B ratio [3]: 3.78 fold

Molecule: Cc1nc(Nc2ncc(C(=O)Nc3c(C)cccc3Cl)s2)cc(N2CCN(CCO)CC2)n1 [dasatinib]
inhibition of FBS-induced ERK/β-arrestin interaction signals [2]: blocked

Molecule: NCCc1ccc(O)c(O)c1 [dopamine]
S/B ratio [3]: 3.66 fold

EC50, stimulation of luciferase signals by RTK ligands [4]: 3.75 ng/mL
Molecule: EGF: epidermal growth factor, RTK ligand

EC50, stimulation of luciferase signals by RTK ligands [4]: 3.87 ng/mL
Molecule: FGF-b: growth factor FGF-basic, RTK ligand

EC50, stimulation of ERK/β-arrestin interaction signals by cytokines [5]: 2.8 ng/mL
Molecule: IL1β: recombinant human cytokine IL1β
S/B ratio [5]: 14.5 fold

EC50, stimulation of ERK/β-arrestin interaction signals by cytokines [5]: 5.65 ng/mL
Molecule: TNFα
S/B ratio [5]: 8.99 fold
